Results taken from patent publication US9181236B2, “2-spiro-substituted iminothiazines and their mono-and dioxides as bace inhibitors, compositions and their use” (Merck Sharp & Dohme Corp., priority 2011, dated 2015).

Columns and labels:
[1] = biological target: purified human autoBACE-2 (Homo sapiens (Human), UniProt Q9Y5Z0); assay: BACE-2 Assay (BACE-HTRF assay); format: biochemical; details: Ki calculated from IC50 using the Cheng-Prusoff equation; read-out: BACE2 Ki
Experimental: Inhibitor IC50s at purified human autoBACE-2 are determined in a time-resolved endpoint proteolysis assay that measures hydrolysis of the QSY7-[…]-Eu-amide FRET peptide substrate (BACE-HTRF assay). […] DMSO is present at 5% final concentration in the assay. Following laser excitation of sample wells at 320 nm, the fluorescence signal at 620 nm is collected for 400 ms following a 50 μs delay on a RUBYstar HTRF plate reader (BMG Labtechnologies). Raw RFU data is normalized to maximum (1.0 nM BACE/DMSO) and minimum (no enzyme/DMSO) RFU values. […] The Ki values are calculated from the IC50 using the Cheng-Prusoff equation.

[2] = biological target: soluble human BACE1 catalytic domain (Homo sapiens (Human), UniProt P56817); assay: BACE1 HTRF FRET Assay; format: biochemical; details: for Ki: Ki calculated from IC50 using the Cheng-Prusoff equation; for inhibition at 10 µM: read-out: BACE1 % Inh. at 10 μM
Chain of soluble human BACE1 catalytic domain (P56817 75-416): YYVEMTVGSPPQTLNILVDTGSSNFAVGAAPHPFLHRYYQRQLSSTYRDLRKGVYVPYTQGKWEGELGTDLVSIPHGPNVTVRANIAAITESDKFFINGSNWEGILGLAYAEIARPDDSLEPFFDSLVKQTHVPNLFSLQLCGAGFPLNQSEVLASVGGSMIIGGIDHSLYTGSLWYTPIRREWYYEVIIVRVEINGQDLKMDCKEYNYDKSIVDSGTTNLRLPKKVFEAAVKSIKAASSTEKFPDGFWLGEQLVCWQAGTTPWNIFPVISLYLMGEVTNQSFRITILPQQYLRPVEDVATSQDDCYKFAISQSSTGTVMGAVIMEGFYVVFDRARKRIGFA
Text: A homogeneous time-resolved FRET assay can be used to determine IC50 values for inhibitors of the soluble human BACE1 catalytic domain. This assay monitors the increase of 620 nm fluorescence that resulted from BACE1 cleavage of an APPswedish APP^swe mutant peptide FRET substrate (QSY7-[…]-Europium-amide). This substrate contains an N-terminal QSY7 moiety that serves as a quencher of the C-terminal Europium fluorophore (620 nm Em). In the absence of enzyme activity, 620 nm fluorescence is low in the assay and increased linearly over 3 hours in the presence of uninhibited BACE1 enzyme Inhibition of BACE1 cleavage of the QSY7-APP^swe-Eu substrate by inhibitors is manifested as a suppression of 620 nm fluorescence.
Reactions are initiated by addition of 10 μl of 600 nM QSY7-APP^swe-Eu substrate (200 nM final) to give a final reaction volume of 30 μl in a 384 well Nunc HTRF plate. The reactions are incubated at 30° C. for 1.5 hours. The 620 nm fluorescence is then read on a Rubystar HTRF plate reader (BMG Labtechnologies) using a 50 millisecond delay followed by a 400 millisecond acquisition time window Inhibitor IC50 values are derived from non-linear regression analysis of concentration response curves.

Chain of purified human autoBACE-2 (Q9Y5Z0 63-473 limits assumed): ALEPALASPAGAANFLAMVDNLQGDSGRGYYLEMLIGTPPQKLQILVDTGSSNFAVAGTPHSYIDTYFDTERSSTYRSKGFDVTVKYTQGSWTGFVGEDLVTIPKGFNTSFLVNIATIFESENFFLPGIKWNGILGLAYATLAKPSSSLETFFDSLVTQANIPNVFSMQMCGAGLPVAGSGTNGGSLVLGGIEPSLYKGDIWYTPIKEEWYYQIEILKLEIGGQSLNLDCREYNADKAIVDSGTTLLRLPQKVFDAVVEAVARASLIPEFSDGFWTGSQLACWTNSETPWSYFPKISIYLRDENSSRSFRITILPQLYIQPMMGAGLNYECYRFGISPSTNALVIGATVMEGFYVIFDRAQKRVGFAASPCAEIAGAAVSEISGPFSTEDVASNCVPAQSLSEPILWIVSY

Ki [1] | Ki [2] | inhibition at 10 µM [2] | inhibition at 1 µM ([2]; read-out: BACE1 % Inh. at 1 μM) | Compound
< 50 nM | 2550 nM | – | – | C[C@@]1(c2sc(C#CC3(c4ccccc4)CCCC3)cc2Cl)CS(=O)(=O)C2(CCC2)C(=N)N1 [Example 77]
< 20 nM | – | 17% | – | C[C@@]1(c2sc(C#CCc3cc(F)c(F)c(F)c3)cc2Cl)CS(=O)(=O)C2(CCC2)C(=N)N1 [Example 78]
4.3 nM | 24 nM | – | – | C[C@@]1(c2cc(NC(=O)c3ccc(F)cn3)ccc2F)CS(=O)(=O)[C@]2(CCOC2)C(=N)N1 [Example 62b]
< 20 nM | 30.3 nM | – | – | COc1ccc(C(=O)Nc2ccc(F)c([C@]3(C)CS(=O)(=O)[C@]4(CCOC4)C(=N)N3)c2)nc1 [Example 62a]
0.3 nM | 1.3 nM | – | – | C[C@@]1(c2cc(NC(=O)c3ccc(Cl)cn3)ccc2F)CS(=O)(=O)C2(CCCC2)C(=N)N1 [Example 12]
1090 nM | 2370 nM | – | – | C[C@@]1(c2sc(Br)cc2Cl)CS(=O)(=O)C2(CCOCC2)C(=N)N1
< 20 nM | 37 nM | – | – | COc1ccc(C(=O)Nc2ccc(F)c([C@]3(C)CS(=O)(=O)C4(CCCCC4)C(=N)N3)c2)nc1 [Example 26]
< 20 nM | 16.4 nM | – | – | COc1ccc(C(=O)Nc2ccc(F)c([C@]3(C)CS(=O)(=O)C4(CCOCC4)C(=N)N3)c2)nc1 [Example 35]
< 50 nM | 20.2 nM | – | – | C[C@@]1(c2sc(-c3cccc(-c4nnco4)c3)cc2Cl)CS(=O)(=O)[C@@]2(CCOC2)C(=N)N1 [Example 63g]
0.9 nM | 5.5 nM | – | – | C[C@@]1(c2cc(NC(=O)c3ccc(F)cn3)ccc2F)CS(=O)(=O)C2(CC2)C(=N)N1 [Example 3]
1.9 nM | 8 nM | – | – | C[C@@]1(c2cc(NC(=O)c3ccc(Cl)cn3)ccc2F)CS(=O)(=O)C2(CCC2)C(=N)N1 [Example 6]
< 50 nM | 192 nM | – | – | C[C@@]1(c2sc(-c3cncc(C#N)c3)cc2Cl)CS(=O)(=O)[C@@]2(CCOC2)C(=N)N1 [Example 63e]
< 20 nM | 74 nM | – | – | COc1cccc(NC(=O)c2cc(Cl)c([C@]3(C)CS(=O)(=O)C4(CC4)C(=N)N3)s2)n1 [Example 79a]
0.3 nM | 3.1 nM | – | – | C[C@@]1(c2cc(NC(=O)c3ccc(F)cn3)ccc2F)CS(=O)(=O)C2(CCCC2)C(=N)N1 [Example 13]
< 50 nM | 113 nM | – | – | C[C@@]1(c2sc(-c3cccc(C#N)c3)cc2Cl)CS(=O)(=O)C2(CCOCC2)C(=N)N1 [Example 49]
< 50 nM | 36 nM | – | – | COc1cnc(C(=O)Nc2ccc(F)c([C@]3(C)CS(=O)(=O)C4(CCCCC4)C(=N)N3)c2)cn1 [Example 27]
< 20 nM | 305 nM | – | – | C[C@@]1(c2sc(-c3ccnc(-c4cccs4)c3)cc2Cl)CS(=O)(=O)[C@]2(CCOC2)C(=N)N1 [Example 62k]
134 nM | 447 nM | – | – | C[C@@]1(c2sc(Br)cc2Cl)CS(=O)(=O)C2(CCCC2)C(=N)N1
< 50 nM | 11.7 nM | – | – | COc1cnc(C(=O)Nc2ccc(F)c([C@]3(C)CS(=O)(=O)C4(CCC4)C(=N)N3)c2)cn1 [Example 7]
3970 nM | – | 54% | – | C[C@@]1(c2cc(N)ccc2F)CS(=O)(=O)C2(CCC2)C(=N)N1
< 20 nM | 13 nM | – | – | C[C@@]1(c2cc(NC(=O)c3cnc(C(F)(F)F)cn3)ccc2F)CS(=O)(=O)C2(CCCC2)C(=N)N1 [Example 16]
3200 nM | 3630 nM | – | – | C[C@@]1(c2cc([N+](=O)[O-])ccc2F)CS(=O)(=O)C2(CCC2)C(=N)N1
2 nM | 19.8 nM | – | – | COc1cccc2cc(-c3cc(Cl)c([C@]4(C)CS(=O)(=O)C5(CCOCC5)C(=N)N4)s3)[nH]c12 [Example 48]
< 20 nM | 428 nM | – | – | C[C@@]1(c2sc(-c3ccnc(-c4ccsc4)c3)cc2Cl)CS(=O)(=O)[C@@]2(CCOC2)C(=N)N1 [Example 63n]
< 20 nM | 35.6 nM | – | – | C[C@@]1(c2sc(-c3cccc(C#N)c3)cc2Cl)CS(=O)(=O)C2(CCC2)C(=N)N1 [Example 61]
2 nM | 20.2 nM | – | – | COc1cccc2cc(-c3cc(Cl)c([C@]4(C)CS(=O)(=O)C5(CCCCC5)C(=N)N4)s3)[nH]c12 [Example 44]

Ki [1] | Ki [2] | inhibition at 10 µM [2] | inhibition at 1 µM ([2]; read-out: BACE1 % Inh. at 1 μM) | Compound
4.3 nM | 12.7 nM | – | – | C[C@@]1(c2cc(NC(=O)c3ccn(C(F)F)n3)ccc2F)CS(=O)(=O)C2(CCCC2)C(=N)N1 [Example 22]
< 20 nM | 5.4 nM | – | – | C[C@@]1(c2cc(NC(=O)c3ccc(C#N)cn3)ccc2F)CS(=O)(=O)C2(CCC2)C(N)=N1 [Example 11]
2670 nM | 6120 nM | – | – | C[C@@]1(c2cc([N+](=O)[O-])ccc2F)CS(=O)(=O)[C@@]2(CCOC2)C(=N)N1
< 50 nM | 11 nM | – | – | C[C@@]1(c2sc(-c3cccc(-c4nnco4)c3)cc2Cl)CS(=O)(=O)C2(CC2)C(=N)N1 [Example 65a]
< 50 nM | 35.9 nM | – | – | C[C@@]1(c2sc(-c3cccc(-c4nnco4)c3)cc2Cl)CS(=O)(=O)C2(CCCCC2)C(=N)N1 [Example 47a]
< 50 nM | 147 nM | – | – | C[C@@]1(c2sc(-c3cccc(C(F)(F)F)c3)cc2Cl)CS(=O)(=O)C2(CCOCC2)C(=N)N1 [Example 52]
< 20 nM | 67.1 nM | – | – | C[C@@]1(c2sc(-c3cncc(C#N)c3)cc2Cl)CS(=O)(=O)[C@]2(CCOC2)C(=N)N1 [Example 62f]
< 20 nM | 313 nM | – | – | C[C@@]1(c2sc(-c3ccnc(-c4ccccc4)c3)cc2Cl)CS(=O)(=O)[C@]2(CCOC2)C(=N)N1 [Example 62n]
1.6 nM | 6.1 nM | – | – | C[C@@]1(c2cc(NC(=O)c3ccc(Cl)cn3)ccc2F)CS(=O)(=O)C2(CCOCC2)C(=N)N1 [Example 33]
715 nM | 2610 nM | – | – | C[C@@]1(c2sc(Br)cc2Cl)CS(=O)(=O)C2(CCCCC2)C(=N)N1
< 50 nM | 41 nM | – | – | COc1cnc(C(=O)Nc2ccc(F)c([C@]3(C)CS(=O)(=O)[C@@]4(CCOC4)C(=N)N3)c2)cn1 [Example 63]
< 20 nM | 24.2 nM | – | – | COc1ccc(C(=O)Nc2ccc(F)c([C@]3(C)CS(=O)(=O)[C@@]4(CCOC4)C(=N)N3)c2)nc1 [Example 63a]
1 nM | 10 nM | – | – | COc1cccc2cc(-c3cc(Cl)c([C@]4(C)CS(=O)(=O)C5(CC5)C(=N)N4)s3)[nH]c12 [Example 64]
< 50 nM | 114 nM | – | – | C[C@@]1(c2sc(-c3cncc(C#N)c3)cc2Cl)CS(=O)(=O)C2(CCCCC2)C(=N)N1 [Example 46]
734 nM | – | – | 44% | C[C@@]1(c2cc([N+](=O)[O-])ccc2F)CS(=O)(=O)C2(CCCC2)C(=N)N1
2.7 nM | 18.7 nM | – | – | C[C@@]1(c2cc(NC(=O)c3ccc(F)cn3)ccc2F)CS(=O)(=O)[C@@]2(CCOC2)C(=N)N1 [Example 63b]
< 50 nM | 104 nM | – | – | C[C@@]1(c2cc(NC(=O)c3ccc(F)cn3)ccc2F)CS(=O)(=O)C2(CCC(O)C2)C(=N)N1 (single isomer, unassigned) [Example 76b]
< 50 nM | 130 nM | – | – | C[C@@]1(c2sc(-c3cncc(C#N)c3)cc2Cl)CS(=O)(=O)C2(CCOCC2)C(=N)N1 [Example 50]
2.5 nM | 12.6 nM | – | – | C[C@@]1(c2cc(NC(=O)c3ncc(F)cc3F)ccc2F)CS(=O)(=O)C2(CCC2)C(=N)N1 [Example 9]
5110 nM | – | 45% | – | C[C@@]1(c2cc(N)ccc2F)CS(=O)(=O)[C@]2(CCOC2)C(=N)N1
1.5 nM | 3.6 nM | – | – | COc1cnc(C(=O)Nc2ccc(F)c([C@]3(C)CS(=O)(=O)C4(CCCC4)C(=N)N3)c2)cn1 [Example 17]
3580 nM | 7020 nM | – | – | C[C@@]1(c2cc(N)ccc2F)CS(=O)(=O)C2(CCOCC2)C(=N)N1
4.2 nM | 17.1 nM | – | – | C[C@@]1(c2cc(NC(=O)c3ccc(F)cn3)ccc2F)CS(=O)(=O)C2(CCC2)C(=N)N1 [Example 8]
< 20 nM | 30 nM | – | – | Cc1cccc(NC(=O)c2cc(Cl)c([C@]3(C)CS(=O)(=O)C4(CC4)C(=N)N3)s2)n1 [Example 79d]
0.4 nM | 1.6 nM | – | – | C[C@@]1(c2cc(NC(=O)c3ccc(Cl)cn3)ccc2F)CS(=O)(=O)C2(CC2)C(=N)N1 [Example 1]
0.6 nM | 5.2 nM | – | – | COc1ccc(C(=O)Nc2ccc(F)c([C@]3(C)CS(=O)(=O)C4(CCCC4)C(=N)N3)c2)nc1 [Example 15]

Compound | Ki [1] | Ki [2] | inhibition at 10 µM [2] | inhibition at 1 µM ([2]; read-out: BACE1 % Inh. at 1 μM)
C[C@@]1(c2cc(N)ccc2F)CS(=O)(=O)C2(CC2)C(=N)N1 | 1860 nM | 4900 nM | – | –
C[C@@]1(c2cc(NC(=O)c3ccc(C(F)(F)F)cn3)ccc2F)CS(=O)(=O)C2(CCOCC2)C(=N)N1 [Example 34] | < 50 nM | 19.8 nM | – | –
